Measured values from PMC4010497, “Synthesis and Evaluation of Fluorine-Substituted Phenyl Acetate Derivatives as Ultra-Short Recovery Sedative/Hypnotic Agents” (PLoS ONE, 2014).

Legend:
[1] = test system: rat; test: Therapeutic index (LD50/HD50) in rat; format: in vivo
Procedure: The LD50 was determined in mice, rats, and rabbits and the TI was calculated as LD50/HD50.

[2] = test system: GABAA receptor; test: GABAA radioligand binding assay ([3H]EBOB); conditions: 50 µM compound, 0.5 nM [3H]EBOB, rat frontoparietal cortex
Procedure: (§1) All the new compounds were dissolved in 5% DMSO.
Specific binding was determined in the presence of compounds.
Membrane suspensions were thawed and centrifuged in incubation buffer at 10,000×g for 10 min and washed by a similar centrifugation. For displacement studies, membrane suspensions (5 mg original wet wt./ml) were incubated with 0.5 nM [^3H]EBOB ([…], Perkin Elmer Life Sciences, Boston, MA, USA) in the absence or presence of 50 µM of new compounds or reference drug for 2 h at 25°C. Nonspecific binding was determined in the presence of 10 µM Bicuculline. Bicuculline and picrotoxin were frequently used to determine the nonspecific binding when [3H]EBOB as radioligand [17]. Triplicate 1 ml samples were filtered on Whatman GF/B filters under vacuum with a Brandel Harvester and washed with 3×3 ml ice-cold buffer.

[3] = In vitro metabolic half-life in rabbit whole blood; format: in vitro ADME; conditions: male, New Zealand White rabbit (n = 3), 37°C, read-out: Mean t1/2 Value
Procedure: Human whole blood stability experiments were conducted in whole blood from four human donors (male, 18–25 years). Single experiments were conducted with pooled blood from Sprague-Dawley rats (male, 8 weeks, n = 3), New Zealand White rabbits (male, 8–10 weeks, n = 3), Beagle dogs (male, 2–3 years, n = 3) and Cynomolgus monkeys (male, 3–4 years, n = 3). All the blood samples were provided by Xuzhou Medical College. A 1.35-ml aliquot of blood was warmed at 37°C for 5 min and hypnotic (from a 40 mM stock in DMSO solution) was added to a final concentration of 200 µM. After the specified incubation time, a 150-µl sample was removed and the metabolic reaction was quenched using 150-µl acetonitrile. Zero time-point samples were prepared by adding 150-µl acetonitrile (using a 4 mM stock in DMSO) to 150-µl blood before addition of the hypnotic. The quenched samples were centrifuged, and the supernatant was separated and stored at −20°C until analyzed. Hypnotic concentrations in thawed samples were determined by high-performance liquid chromatography using a 3-µm phenyl 4.6×50-mm C-A-25, ACE column with the UV detector set at 240 nm. […] The lower limit of quantitation of this assay is 3 µM and the accuracy within 15% at 10 µM. The metabolic half-lives were quantified from the incubation time-dependent change in drug concentration.

[4] = target: T1, human GABAA receptor α1, β2 and γ2 (CHO-K1 cells) (Homo sapiens, UniProt P14867+P18507+P47870); test: cell-based; conditions: GABAA (α1β2γ2) CHO-K1 cell
T1 construct: expressed in transfected cells; host or cells: CHO-K1 cells, stably transfected
T1 sequence (P14867 28-456): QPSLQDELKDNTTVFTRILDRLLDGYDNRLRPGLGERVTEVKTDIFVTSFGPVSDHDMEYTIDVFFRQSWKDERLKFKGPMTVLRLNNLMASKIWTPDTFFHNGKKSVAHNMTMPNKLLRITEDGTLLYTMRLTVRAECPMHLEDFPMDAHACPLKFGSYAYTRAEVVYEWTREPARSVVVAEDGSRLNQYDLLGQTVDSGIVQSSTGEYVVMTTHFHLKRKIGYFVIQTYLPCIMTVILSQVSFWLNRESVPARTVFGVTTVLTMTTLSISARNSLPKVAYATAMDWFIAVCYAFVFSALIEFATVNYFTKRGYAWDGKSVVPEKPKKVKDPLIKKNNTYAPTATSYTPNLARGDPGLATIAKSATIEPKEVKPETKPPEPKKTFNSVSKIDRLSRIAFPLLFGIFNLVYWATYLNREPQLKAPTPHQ
T1 sequence (P47870 25-512 limits assumed): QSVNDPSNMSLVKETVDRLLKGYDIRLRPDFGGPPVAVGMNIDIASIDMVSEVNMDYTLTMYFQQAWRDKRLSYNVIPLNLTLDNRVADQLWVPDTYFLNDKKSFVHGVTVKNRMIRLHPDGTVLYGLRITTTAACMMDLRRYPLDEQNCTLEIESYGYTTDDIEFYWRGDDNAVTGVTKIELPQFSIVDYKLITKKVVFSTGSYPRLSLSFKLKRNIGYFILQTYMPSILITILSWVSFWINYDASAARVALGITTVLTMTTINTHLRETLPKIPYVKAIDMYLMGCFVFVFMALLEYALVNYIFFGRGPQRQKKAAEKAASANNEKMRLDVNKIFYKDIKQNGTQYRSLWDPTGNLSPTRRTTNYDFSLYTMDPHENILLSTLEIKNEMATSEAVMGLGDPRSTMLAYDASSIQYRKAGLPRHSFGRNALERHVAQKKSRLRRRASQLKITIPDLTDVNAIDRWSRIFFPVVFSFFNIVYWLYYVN
T1 sequence (P18507 40-475): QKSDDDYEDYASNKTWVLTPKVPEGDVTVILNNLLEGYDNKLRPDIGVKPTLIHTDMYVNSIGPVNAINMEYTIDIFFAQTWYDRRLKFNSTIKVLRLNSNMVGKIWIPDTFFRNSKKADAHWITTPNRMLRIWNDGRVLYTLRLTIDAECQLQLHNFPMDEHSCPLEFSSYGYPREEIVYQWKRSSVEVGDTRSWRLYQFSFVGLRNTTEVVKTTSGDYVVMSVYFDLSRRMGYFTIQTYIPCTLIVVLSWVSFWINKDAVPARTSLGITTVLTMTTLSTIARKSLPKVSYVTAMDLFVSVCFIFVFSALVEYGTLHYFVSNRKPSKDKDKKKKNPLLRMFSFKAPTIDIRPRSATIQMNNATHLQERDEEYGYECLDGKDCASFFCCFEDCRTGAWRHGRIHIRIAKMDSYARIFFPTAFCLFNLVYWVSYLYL
Procedure: Chinese hamster ovary (CHO)-K1 cells transfected stably with human GABAA receptor α1, β2 and γ2 subunit cDNAs were used. The cells were plated onto collagen-coated 35-mm cell culture dishes at low density for 1–7 days before recording. Test solutions were prepared in the extracellular solution on the day the patch-clamp assay was performed. The intracellular solution consisted of 22 mM KCl, 110 mM K-aspartate, 8 mM NaCl, 1 mM MgCl2, 1 mM CaCl2, 10 mM ethylene glycol tetraacetic acid, 5 mM Na2ATP, 10 mM hydroxyethyl piperazineethanesulfonic acid (HEPES) (adjusted to pH 7.2 using KOH), while the extracellular solution contained 145 mM NaCl, 4 mM KCl, 2 mM CaCl2, 2 mM MgCl2, 10 mM HEPES (adjusted to pH 7.4 using NaOH). The assay was performed at room temperature. Cells were maintained at −70 mV and the potentiation effect was assessed by co-application of the test compound with EC20 of muscimol after the cell was pre-incubated with the test compound for 45 s. GABA EC20 measured individually in each cell. The amplitude of the Cl− current in response to muscimol and/or test compound was determined. The response to the co-application of the test compound and muscimol was normalized to the control muscimol response as a percentage of the control. A potentiation effect was indicated by a value >100% of the control response. EC50 values were calculated using the four parameter logistic equation, where E was the amplitude of the muscimol-induced current in the presence of the anesthetic at concentration [A], EMAX was the amplitude of the response in the presence of a maximally effective concentration of the anesthetic, EC50 was the concentration of anesthetic producing a half-maximal enhancement of the muscimol-induced response and nH was the Hill coefficient. [drawing 1]

[5] = test system: GABAA and dopamine D2, D3, H1, 5HT1A, 5HT2A, 5HT2C, 5HTT, α1 and α2 receptors; conditions: 50 µmol, GABAA vs off-target receptors
Procedure: as §1
Total binding was determined in the absence of no-specific binding and compounds. Specific binding was determined in the presence of compounds. […]
Rat cerebral cortex was homogenized in 20 volumes of ice-cold Tris-HCl buffer (50 mM, pH 7.7) using an ULTRA TURAX homogeniser, and was then centrifuged at 32000 g for 10 min. […] The final pellet was resuspended in Tris-HCl buffer containing 10 µM Pargyline, 4 mM CaCl2 and 0.1% ascorbic acid. […] The incubation was followed by a rapid vacuum filtration through Whatman GF/B glass filters, and the filtrates were washed twice with 5 mL cold buffer and transferred to scintillation vials. Scintillation fluid (3.0 mL) was added and the radioactivity bound was measured using a Beckman LS 6500 liquid scintillation counter.
Rat cerebral cortex was homogenized in 20 volumes of ice-cold Tris-HCl buffer (50 mM, pH 7.7) using an ULTRA TURAX homogeniser, and centrifuged at 32000 g for 20 min. The resulting pellet was resuspended in the same quantity of the buffer centrifuged for 20 min. […] Scintillation fluid (3.0 mL) was added and the radioactivity bound was measured using a Beckman LS 6500 liquid scintillation counter.
The resulting pellet was resuspended in the same quantity of the buffer centrifuged for 20 min.

[6] = Octanol:water partition coefficient; format: physicochemical; conditions: water buffered with 10 mm Tris (pH 7.4)
Procedure: One mg of each hypnotic was added to 10 ml of water buffered with 10 mm Tris (pH 7.4) and 1 ml of octanol. The mixture was stirred overnight and then centrifuged to fully separate the organic and aqueous phases. The relative hypnotic concentration in each phase (i.e., the partition coefficient) was determined by high-performance liquid chromatography as described for blood.

CCOc1cc(CC(=O)OCC(F)(F)F)ccc1OCC(=O)N(CC)CC [Compound 5j, 2,2,2-trifluoroethyl 2-(4-(2-(diethylamino)-2-oxoethoxy)-3-ethoxyphenyl)acetate]
TI [1]: 13.3 | GABAA binding (50 µmol) (Mean ± SD), percentage of inhibition [2]: 90.5±6.9% | half-life at 200 µM [3]: 11.6 ± 1.6 min | maximum potentiation relative to that of propanidid [4]: ~150% | maximum potentiation relative to that produced by propofol [4]: approximately 50% | EC50 ([4]; patch clamp, read-out: EC50, potentiation of EC20 muscimol evoked chloride currents): 12 µM | binding selectivity profile [5]: selective binding to the GABAA receptor | Octanol:Water Partition (Coefficient ± SD) [6]: 648±36
